Reference: patent US11598701B1, “Method and system for lysing a liquid sample with augmented oxidizing agents to create a solution with a reduced microbial concentration and precipitate formation” (BIS SCIENCE LLC, priority 2021, dated 2023)
Several values for one entry are separate records, joined by “and”; a condition that tells them apart may be missing. Identical values can stand only once.

Tested on: S. aureus ATCC 6538
Experiment: Antimicrobial suspension test of H2O2 with and without photon activation
Type: cell-based
Conditions: contact time 5 minutes; for Average CFU/ML: average of replicates; for CFU/ML: single replicate

Row | Compound | % reduction Compared to controls | LOG 10 Reduction compared to controls | Average CFU/ML | CFU/ML | CFU/ML (listed as l ppm H2O2 no photon activation)
1 | OO [1 ppm H2O2 no photon activation, H2O2] | No reduction | No reduction | 4.05E+06 CFU/ML | 4.10E+06 CFU/ML | 4.10E+06 CFU/ML
2 | OO [.3% H2O2 no photon activation, H2O2] | No reduction | No reduction | 4.05E+06 CFU/ML | 4.10E+06 CFU/ML and 4.00E+06 CFU/ML | 
